Legend:
Format in all cases: in vivo
Armyworm [1] = assay: Test examples 3: leaf dipping method, cabbage, Armyworm; conditions: after 3 days
Experimental: A certain amount of compound (0.0001 g) was weighed by using an analytical balance, and prepared to a mother liquid (1) with N,N-dimethylformamide containing 1% Tween-80 emulsifier, and then the other liquid was diluted with distilled water or standby.
(§1) Leaf dipping method: an appropriate amount of cabbage was infiltrated in the prepared liquid and dried in the shade naturally, and then placed in a culture dish with filter paper; Armyworm/Diamondback moth larvae in the 2-3rd instar were inoculated, 10 heads per dish, and the dishes were cultured in an observation room at 24-27° C. The results were investigated after 3 days. […] The test concentrations were 50 mg/L, 25 mg/L, 12.5 mg/L, 6.25 mg/L, 3.13 mg/L, 1.56 mg/L.

Diamondback moth = assay: Test examples 2: leaf dipping method, Diamondback moth; conditions: Plutella xylostella, foliar, 72 h, after 3 days, read-out: The mortality rate (%) of the compound to Diamondback moth; for mortality at 12.5 µg/mL: 12.5 mg/L; for mortality at 25 µg/mL: 25 mg/L; for mortality at 50 µg/mL: 50 mg/L
Experimental: (§2) A certain amount of compound (0.0001 g) was weighed by using an analytical balance, and prepared to a mother liquid (1%) with N, N-dimethylformamide containing 1% Tween-80 emulsifier, and then the mother liquid was diluted with distilled water for standby.
as §1, with “corn leaves/cabbage/cowpea were” for “cabbage was”, “armyworm/Diamondback moth/Beet Armyworm” for “Armyworm/Diamondback moth”, “inoculated to the corn leaves,” for “inoculated,”

Armyworm [2] = assay: Test examples 2: leaf dipping method, Armyworm; conditions: Mythimna separata, foliar, 72 h, after 3 days, read-out: The mortality rate (%) of the compound to Armyworm; for mortality at 12.5 µg/mL: 12.5 mg/L; for mortality at 25 µg/mL: 25 mg/L; for mortality at 50 µg/mL: 50 mg/L
Experimental: as §2
as §1, with “corn leaves/cabbage/cowpea were” for “cabbage was”, “armyworm/Diamondback moth/Beet Armyworm” for “Armyworm/Diamondback moth”, “inoculated to the corn leaves,” for “inoculated,”

Beet Armyworm = assay: Test examples 2: leaf dipping method, Beet Armyworm; conditions: Spodoptera exigua, foliar, 72 h, after 3 days, read-out: The mortality rate (%) of the compound to Beet Armyworm; for mortality at 12.5 µg/mL: 12.5 mg/L; for mortality at 25 µg/mL: 25 mg/L; for mortality at 50 µg/mL: 50 mg/L
Experimental: as §2
as §1, with “corn leaves/cabbage/cowpea were” for “cabbage was”, “armyworm/Diamondback moth/Beet Armyworm” for “Armyworm/Diamondback moth”, “inoculated to the corn leaves,” for “inoculated,”

[3] = test system: Frankliniella occidentalis; assay: Test examples 2: spraying of cowpea leaf discs, Frankliniella occidentalis; conditions: foliar, 24 h, after 1 day, read-out: The mortality rate (%) of the compound to Frankliniella occidentalis; for mortality at 5 µg/mL: 5 mg/L; for mortality at 10 µg/mL: 10 mg/L; for mortality at 20 µg/mL: 20 mg/L
Experimental: as §2
Spraying: cowpea leaves growing uniformity were punched with a punching bear to make leaf discs, leaf discs were placed onto degreased cotton blocks in a dish, two leaf discs per dish, and water was added into the dish and it was flush with the leaf discs, and the dish was for standby. Frankliniella occidentalis in the 2-3rd instar were inoculated to the ready leaf discs, more than 15 per disc. Which were spayed under Potter spray tower at a dose of 0.5 mL per treatment. The blank control was treated first, and then the above operations were repeated in the order of the test dose from low to high, with 2 repeats per treatment. After treatment, the samples were placed in the observation room, and the results were investigated 1 day later. […] The test concentrations were 20 mg/L, 10 mg/L, 5.0 mg/L, 2.5 mg/L, 1.25 mg/L, 0.625 mg/L.

Compound	The mortality rate (%) to Armyworm (Armyworm [1]; 12.5 mg/L) [%]	The mortality rate (%) to Armyworm (Armyworm [1]; 25 mg/L) [%]	The mortality rate (%) to Armyworm (Armyworm [1]; 50 mg/L) [%]	mortality at 12.5 µg/mL (Diamondback moth) [%]	mortality at 25 µg/mL (Diamondback moth) [%]	mortality at 50 µg/mL (Diamondback moth) [%]	mortality at 12.5 µg/mL (Armyworm [2]) [%]	mortality at 25 µg/mL (Armyworm [2]) [%]	mortality at 50 µg/mL (Armyworm [2]) [%]	mortality at 12.5 µg/mL (Beet Armyworm) [%]	mortality at 25 µg/mL (Beet Armyworm) [%]	mortality at 50 µg/mL (Beet Armyworm) [%]	mortality at 5 µg/mL [3] [%]	mortality at 10 µg/mL [3] [%]	mortality at 20 µg/mL [3] [%]
2-ethyl-3,5,7-trimethyl-6-(4-(trifluoromethoxy)phenoxy)quinolin-4-ol [compound (42)]	80	85	95												
CCc1nc2cc(C)c(Oc3ccc(C(C)(C)C)cc3)cc2c(OC(=O)OCCOC)c1C [Example 4, 6-(4-(tert-butyl)phenoxy)-2-ethyl-3,7-dimethylquinolin-4-yl (2-methoxyethyl)carbonate]				90	100	100	80	90	100						
CCc1nc2cc(C)c(Oc3ccc(OC(F)(F)F)cc3)cc2c(OC(=O)OCCOCCOC)c1C [Example 7]				85	90	100	100	100	100	80	100	100	95	100	100
CCc1nc2cc(C)c(Oc3ccc(OC(F)(F)F)cc3)cc2c(OC(=O)OCC2CCCO2)c1C (stereo not drawn) [Example 8]				93	100	100	100	100	100	70	95	100	85	100	100
CCOCCOC(=O)Oc1c(C)c(CC)nc2cc(C)c(Oc3ccc(OC(F)(F)F)cc3)cc12 [Example 17, 2-ethoxyethyl (2-ethyl-3,7-dimethyl-6-(4-(trifluoromethoxy)phenoxy)quinolin-4-yl) carbonate]				100	100	100	100	100	100						
CCc1nc2cc(C)c(Oc3ccc(OC(F)(F)F)cc3)c(C)c2c(OC(=O)OCCOC)c1C [Example 18, 2-ethyl-3,5,7-trimethyl-6-(4-(trifluoromethoxy)phenoxy)quinolin-4-yl (2-methoxyethyl) carbonate]				100	100	100	100	100	100	90	100	100	100	100	100
CCc1nc2ccc(Oc3ccc(C(C)(C)C)cc3)c(C)c2c(OC(=O)OCCOC)c1C [Example 22, 6-(4-(tert-butyl)phenoxy)-2-ethyl-3,5-dimethylquinolin-4-yl (2-methoxyethyl) carbonate]				85	90	100	80	95	100						
CCc1nc2cc(C)c(Oc3ccc(C(C)(C)C)cc3)c(C)c2c(OC(=O)OCCOC)c1C [Example 26, 6-(4-(tert-butyl)phenoxy)-2-ethyl-3,5,7-trimethylquinolin-4-yl (2-methoxyethyl) carbonate]				85	95	100	90	100	100						
CCc1nc2ccc(Oc3ccc(C(C)(C)C)cc3)c(C)c2c(OC(=O)OCC2CCCO2)c1C (stereo not drawn) [Example 35, 6-(4-(tert-butyl)phenoxy)-2-ethyl-3,5-dimethylquinolin-4-yl ((tetrahydrofuran-2-yl)methyl) carbonate]				80	90	100	80	95	100						
CCc1nc2cc(C)c(Oc3ccc(C(C)(C)C)cc3)c(C)c2c(OC(=O)OCC2CCCO2)c1C (stereo not drawn) [Example 36, 6-(4-(tert-butyl)phenoxy)-2-ethyl-3,5,7-trimethylquinolin-4-yl ((tetrahydrofuran-2-yl)methyl) carbonate]				85	95	100	90	100	100						
CCc1nc2cc(C)c(Oc3ccc(OC(F)(F)F)cc3)c(C)c2c(OC(=O)OCC2CCCO2)c1C (stereo not drawn) [Example 37]				95	100	100	100	100	100	75	100	100	95	100	100
CCc1nc2ccc(Oc3ccc(OC(F)(F)F)cc3)c(C)c2c(OC(=O)OCC2CCCO2)c1C (stereo not drawn) [Example 38]				92	100	100	90	100	100	70	100	100	90	100	100
CCc1nc2ccc(Oc3ccc(OC(F)(F)F)cc3)c(C)c2c(OC(=O)OCCOC)c1C [Example 39, 2-ethyl-3,5-dimethyl-6-(4-(trifluoromethoxy)phenoxy)quinolin-4-yl (2-methoxyethyl) carbonate]				100	100	100	100	100	100						
CCOCCOC(=O)Oc1c(C)c(CC)nc2cc(C)c(Oc3ccc(OC(F)(F)F)cc3)c(C)c12 [Example 40, 2-ethoxyethyl (2-ethyl-3,5,7-trimethyl-6-(4-(trifluoromethoxy)phenoxy)quinolin-4-yl) carbonate]				95	100	100	95	100	100						
CCc1nc2cc(C)c(Oc3ccc(OC(F)(F)F)cc3)c(C)c2c(OC(=O)OCCOC(C)C)c1C [Example 41, 2-ethyl-3,5,7-trimethyl-6-(4-(trifluoromethoxy)phenoxy)quinolin-4-yl (2-isopropoxyethyl) carbonate]				90	100	100	80	100	100						

Reference: US20210040041A1, “QUINOLINE DERIVATIVES AND PREPARATION METHODS AND USES THEREOF” (DONGGUAN HEC PESTICIDES R&D CO., LTD., priority 2018, published 2021)
